In US20180185408A1, “ANTIFUNGAL NYLON-3 POLYMERS AND COMBINATION THERAPY USING THEM TO TREAT FUNGAL INFECTIONS” (priority 2016, published 2018):
Converted amounts (≈) assume the structure as drawn. Like-named read-outs stand apart in the source and are kept apart here.

What was measured:
[1] = system: Candida albicans; assay: Minimum fungicidal concentration (MFC), plating after MIC assay; assay type: cell-based; conditions: […]10^5 cells/mL
[2] = system: human red blood cells (hRBCs); assay: Hemolysis assay; conditions: 1 hour
[3] = system: Cryptococcus spp.; assay: MIC and MFC by broth microdilution, summary over Cryptococcus strains; assay type: cell-based
[4] = system: Cryptococcus gattii; assay: MIC by broth microdilution (CLSI M27-A3); assay type: cell-based; conditions: […]10^3 cells/mL
[5] = system: Cryptococcus neoformans; assay: MIC by broth microdilution (CLSI M27-A3); assay type: cell-based; conditions: […]10^3 cells/mL
[6] = system: Candida lusitaniae; assay: MIC by broth microdilution (CLSI M27-A3); assay type: cell-based

With `C[C@@H]1[C@H](O)[C@@H](C)/C=C/C=C/C=C/C=C/C=C/C=C/C=C/[C@H](O[C@@H]2O[C@H](C)[C@@H](O)[C@H](N)[C@@H]2O)C[C@@H]2O[C@](O)(C[C@@H](O)C[C@@H](O)[C@H](O)CC[C@@H](O)C[C@@H](O)CC(=O)O[C@H]1C)C[C@H](O)[C@H]2C(=O)O` [AMB, amphotericin B] the MFC ([1]; C. albicans (K1), Fluconazole Resistant, RPMI 1640 (0.2% Glucose), 30° C.) was 3.13 µg/mL, the MFC ([1]; C. albicans (SCG5314), Sensitive, RPMI 1640 (0.2% Glucose), 30° C.) was 1.56 µg/mL and the MFC ([1]; E4, 30°C, avg.) was 12.5 µg/mL. The MFC ([1]; E4, 30°C, avg., read-out: MFC) was 13.5 µM, the MFC ([1]; E4, 30°C, trial 1) was 12.5 µg/mL and the MFC ([1]; E4, 30°C, trial 1, read-out: MFC) was 13.5 µM. The MFC ([1]; E4, 30°C, trial 2) was 12.5 µg/mL, the MFC ([1]; E4, 30°C, trial 2, read-out: MFC) was 13.5 µM and the MFC ([1]; Gu5, 30°C, avg.) was 1.6 µg/mL. It also gave an MFC ([1]; Gu5, 30°C, avg., read-out: MFC) of 1.7 µM, an MFC ([1]; Gu5, 30°C, trial 1) of 1.6 µg/mL and an MFC ([1]; Gu5, 30°C, trial 1, read-out: MFC) of 1.7 µM. It also gave an MFC ([1]; Gu5, 30°C, trial 2) of 1.6 µg/mL, an MFC ([1]; Gu5, 30°C, trial 2, read-out: MFC) of 1.7 µM and an MFC ([1]; K1, 30°C, avg.) of 3.1 µg/mL. The MFC ([1]; K1, 30°C, avg., read-out: MFC) was 3.4 µM, the MFC ([1]; K1, 30°C, trial 1) was 3.1 µg/mL and the MFC ([1]; K1, 30°C, trial 1, read-out: MFC) was 3.4 µM. It also gave an MFC ([1]; K1, 30°C, trial 2) of 3.1 µg/mL, an MFC ([1]; K1, 30°C, trial 2, read-out: MFC) of 3.4 µM and an MFC ([1]; SC5314, 30°C, avg.) of 1.6 µg/mL. It also gave an MFC ([1]; SC5314, 30°C, avg., read-out: MFC) of 1.7 µM, an MFC ([1]; SC5314, 30°C, trial 1) of 1.6 µg/mL and an MFC ([1]; SC5314, 30°C, trial 1, read-out: MFC) of 1.7 µM. The MFC ([1]; SC5314, 30°C, trial 2) was 1.6 µg/mL, the MFC ([1]; SC5314, 30°C, trial 2, read-out: MFC) was 1.7 µM and the “concentration causing 10% hemolysis (HC10)” value [2] was 27 µM. The “concentration causing 50% lysis of hRBCs (HC50)” value [2] was 54 µM, the MIC ([3]; Cryptococcus test strains) was about 1 µM (≈ 0.924 µg/mL) and the MFC ([3]; Cryptococcus test strains (FLC: all strains except C21F3)) was about 1 µM (≈ 0.924 µg/mL). The MIC ([4]; C751, 30°C, OD600 48 h) was at most 0.2 µg/mL, the MIC ([4]; C751, 30°C, OD600 48 h, Table 15, read-out: MIC) was at most 0.2 µM and the MIC ([4]; C. gattii (C751), Sensitive, RPMI 1640 (0.2% Glucose), 37° C.) was at most 0.2 µg/mL. The MIC ([4]; C. gattii (C751), 30°C, read-out: MIC) was at most 0.2 µM, the MIC ([4]; C. gattii (WM275), Sensitive, RPMI 1640 (0.2% Glucose), 37° C.) was 0.8 µg/mL and the MIC ([4]; C. gattii (WM276), 30°C, read-out: MIC) was 0.9 µM. The MIC ([4]; WM276, 30°C, OD600 48 h) was 0.8 µg/mL, the MIC ([4]; WM276, 30°C, OD600 48 h, Table 15, read-out: MIC) was 0.9 µM and the MIC ([5]; B3501, 30°C, […]) was 0.8 µg/mL. It also gave an MIC ([5]; B3501, 30°C, […], Table 15) of 0.9 µM, an MIC ([5]; C21F3, 30°C, OD600 48 h) of 0.8 µg/mL and an MIC ([5]; C21F3, 30°C, OD600 48 h, Table 15) of 0.9 µM. The MIC ([5]; C. neoformans (B3501), Sensitive, RPMI 1640 (0.2% Glucose), 37° C.) was 0.8 µg/mL, the MIC ([5]; C. neoformans (B3501), 30°C) was 0.9 µM and the MIC ([5]; C. neoformans (C21F3), 30°C) was 0.9 µM. The MIC ([5]; C. neoformans (H99), Sensitive, RPMI 1640 (0.2% Glucose), 37° C.) was 1.6 µg/mL, the MIC ([5]; C. neoformans (H99), 30°C) was 1.7 µM and the MIC ([5]; C. neoformans (JEC21), Sensitive, RPMI 1640 (0.2% Glucose), 37° C.) was 0.2 µg/mL. It also gave an MIC ([5]; C. neoformans (JEC21), 30°C) of 0.2 µM, an MIC ([5]; H99, 30°C, OD600 48 h) of 1.6 µg/mL and an MIC ([5]; H99, 30°C, OD600 48 h, Table 15) of 1.7 µM. The MIC ([5]; JEC21, 30°C, OD600 48 h) was 0.2 µg/mL, the MIC ([5]; JEC21, 30°C, OD600 48 h, Table 15) was 0.2 µM and the MIC ([5]; […], RPMI 1640 (0.2% Glucose), 37° C.) was 0.8 µg/mL. For the same compound, the MIC ([6]; C. Lusitania (CL3), Sensitive, RPMI 1640 (0.2% Glucose), […]10^5 cells/mL, 30° C.) was 0.4 µg/mL, the MIC ([6]; C. lusitaniae (CL3), […]10^3 cells/mL, 35°C, read-out: MIC) was 0.4 µM and the MIC ([6]; CL3, […]10^3 cells/mL, 35°C, OD600 24 h, avg.) was under 1.6 µg/mL. It also gave an MIC ([6]; CL3, […]10^3 cells/mL, 35°C, OD600 24 h, avg., read-out: MIC) of under 1.7 µM, an MIC ([6]; CL3, […]10^3 cells/mL, 35°C, OD600 24 h, trial 1) of under 1.6 µg/mL and an MIC ([6]; CL3, […]10^3 cells/mL, 35°C, OD600 24 h, trial 1, read-out: MIC) of under 1.7 µM. It also gave an MIC ([6]; CL3, […]10^3 cells/mL, 35°C, OD600 24 h, trial 2) of under 1.6 µg/mL, an MIC ([6]; CL3, […]10^3 cells/mL, 35°C, OD600 24 h, trial 2, read-out: MIC) of under 1.7 µM and an MIC ([6]; CL3, […]10^5 cells/mL, 30°C, OD600 48 h, avg.) of 0.4 µg/mL. For the same compound, the MIC ([6]; CL3, […]10^5 cells/mL, 30°C, OD600 48 h, avg., read-out: MIC) was 0.4 µM, the MIC ([6]; CL3, […]10^5 cells/mL, 30°C, OD600 48 h, trial 1) was 0.4 µg/mL and the MIC ([6]; CL3, […]10^5 cells/mL, 30°C, OD600 48 h, trial 1, read-out: MIC) was 0.4 µM. For the same compound, the MIC ([6]; CL3, […]10^5 cells/mL, 30°C, OD600 48 h, trial 2) was 0.4 µg/mL.
